Results from patent EP2253629A1, “Polymorphs of racemic sunitinib malate, compositions containing them and preparation thereof” (Teva Pharmaceutical Industries Ltd., priority 2007, dated 2009).

Test: solubility in water
Format: physicochemical

- solubility: < 1 mg/mL
SMILES: CCN(CC)CCNC(=O)c1c(C)[nH]c(/C=C2\C(=O)Nc3ccc(F)cc32)c1C [sunitinib base form VIII, N-[2-(diethylamino)ethyl]-5-[(Z)-(5-fluoro-1,2-dihydro-2-oxo-3H-indol-3-ylidine)methyl]-2,4-dimethyl-1 H-pyrrole-3-carboxamide]
